# Source: US20130065964A1, “PERITONEAL DIALYSIS SOLUTION” (UNIVERSIDAD DE CASTILLA LA MANCHA, priority 2010, published 2013)
# Assays:
# p38 MAPK = experiment: Phosphorylation of p38 MAPK by Western blot; format: cell-based; conditions: rat PMCs, D-glucose 50 mM, FIG. 8
# Source text: Densitometric analysis of the phosphor-p38 levels normalized with respect to the controls (C). The data is expressed as mean±SEM, n=3. * p<0.05 compared to untreated cells (control). # p<0.05, compared to cells treated with D-glucose in the presence of carrier (0).
# (§1) Rat peritoneal mesothelial cells were isolated by enzymatic digestion in accordance with protocols described in Hjelle J T, Golinska B T, Waters D C, et al. Perit Dial Int 1989; 9: 341-7. Briefly, female rats weighing 200-400 g of the Spragle-Dawley strain were sacrificed pursuant to Royal Decree 1201/2005, of 10 Oct., on protection of animals used for experimental and other scientific purposes. The abdominal cavity was quickly opened and the abdominal wall (peritoneum and smooth muscle) extracted under sterile conditions. […]
# In order to obtain the total protein of the cell cultures, the culture medium was collected and replaced with PBS. […] The protein content of the cell lysates was determined using the Bradford method, following the standard protocol (Vorobiov M, Malki M, Shnaider A, et al. Perit Dial Int 2008; 28: 648-54). A quantity of 20 μg of protein/well of each sample was loaded onto 10% polyacrylamide gels. […] Band intensity was quantified by grey levels using an appropriate image analysis system (Quantity One).
# Collagen III = experiment: Real-time RT-PCR in cultured PMCs exposed to PDF; format: cell-based; conditions: rat PMCs, 1.5% PDF diluted 1:1 in culture medium, 24 hours, aliskiren 10-100 μM, FIG. 10
# Protocol: After incubating the rat PMCs in 1.5% PDF diluted 1:1 in culture medium for 24 hours, in the presence or absence of aliskiren (10-100 μM), total RNA was isolated and real-time RT-PCR was carried out as described in Material and Methods. The data is expressed as mean±SEM, n=3. * p<0.05 compared to untreated cells (control). # p<0.05, compared to cells treated with 1.5% PDF in the presence of carrier (0).
# as §1, with “purposes.” for “purposes. The abdominal cavity was quickly opened and the abdominal wall (peritoneum and smooth muscle) extracted under sterile conditions.”
# The RNA expression was evaluated by real-time RT-PCR in PMCs. […] RNA quality and concentration was evaluated by spectrophotometry (Infinite 200, Tecan, Salzburg, Austria) using 1 μl of the RNA sample. […] The dissociation curves were analysed to confirm the amplification of a single PCR product. […] In each experiment, the mean cycle threshold (CT) was calculated from triplicates for each of the genes studied, enabling comparison of the gene expression after different treatments (Methods 25, 402-408 (2001). In order to normalize the data, the gene expression of β-actin was used as endogenous control.
smiles,measurement,setting,value
COCCCOc1cc(C[C@@H](C[C@H](N)[C@@H](O)C[C@H](C(=O)NCC(C)(C)C(N)=O)C(C)C)C(C)C)ccc1OC [aliskiren],phosphorylation of protein p38,p38 MAPK,prevented
same,RNAm levels for collagen III,Collagen III,lowered
